Here are results for two compounds from US11582989B2, “Stress management in livestock” (Charles Sturt University, priority 2013, dated 2023).

Series [1] concerns C57B16/Ola male mice. The series can be described thus: Novel arena test, freezing response episodes (AnyMaze). Conditions: potassium bromide 250 mg/L in drinking water for 7 days, vs normal drinking water. It counts as in vivo. The method, then: Animals were placed in the centre of an open arena which was unfamiliar to them and their rate and range of movement tracked by digital recognition software. Distance, speed and time spent immobile were analysed using the AnyMaze™ software. Results were compared statistically using SPSS™.

For series [2] the following is noted: Podell and Fenner, 1993; cited from earlier work.
For series [3], the system named is C57B16/Ola male mice. The settings on record: potassium bromide 250 mg/L in drinking water for 7 days. Here is the method: (§1) A model system was established to induce stress in rodents by repeated behavioural testing using the AnyMaze™ rodent behavioural monitoring system. […] At the end of 7 days animals were subjected to a number of behavioural tests to assess level of stress. Weight gain was also analysed in the treatment group by recording body weight over the initial 7 day period.
(§2) C57B16/Ola male mice at 5 weeks of age were purchased from MAS Client Services, Monash University, Melbourne, Australia. Animals were weighed at the start of the test period and daily for the duration of testing.
(§3) Animals were weighed 3 times during the experiment (7 days). To initiate a mildly stressful situation, animals were exposed to novel arena, parallel rod and tremor tests using the mouse AnyMaze™ system (AnyMaze™, Stoelting, U.S.A.).

A short description of series [4]: Weight gain of Merino ewe lambs after mulesing and tail docking. It counts as in vivo.
The conditions of series [5]: horse (Raidal and Edwards, 2008); cited from earlier work.
For series [6] the following is noted: cited from earlier work.
For series [7] the following is noted: sheep, 120 mg/kg. Here is the method: (§4) NaBr solution was administered through the cephalic vein using a 21 gauge needle over a period of 1 minute. Sheep were restrained in a seated position. Blood samples were collected at 0, 1, 5, 10, 15, 20 and 30 min and then at 1, 2, 3, 4, 6, 8, 10, 12, 24 h. Samples thereafter were collected at 12 h intervals to 240 h then at 24 h intervals to 336 h. A final sample was taken at 528 h. For each sample, the initial 2 mL of blood collected was discarded and a sterile syringe used to withdraw 5 mL of blood which was then placed into a plain separator blood tube (Vacuette: Greiner Bio-one). The cannulas were flushed with 3 mL of 5% heparinised saline after each collection. Each blood sample was left to stand for 30 min before centrifugation at 2000 g for 5 min. Serum was harvested and stored at −20° C. until analysis.
(§5) KBr solution was administered via an orogastric tube, then flushed with 500 mL water. Blood samples were collected at 0, 1, 2, 3, 4, 6, 8, 10, 12, 24 h, then at 12 h intervals to 240 h, then at 24 h intervals to 336 h. A final sample was taken at 504 h. When collecting blood samples at 1 h through to 10 h the rumen was auscultated, over the caudo-dorsal blind sack, to determine if the high salt load affected rumen motility.

The nature of series [8]: Weight gain under mildly stressful management conditions. It counts as in vivo, mice. Conditions: potassium bromide 250 mg/L in drinking water, 7 days, mild stress, vs control. Here is the method:
as §1, §2, §3

For series [9] the following is noted: sheep. Here is the method: as §4, §5
Absorbance was measured with a spectrophotometer at 440 nm.

Setting [10] is: 300 mg/kg LW oral bromide immediately prior to procedure, n=20.

Each structure is given as a SMILES string. Like-named read-outs stand apart in the source and are kept apart here.

The term t½ denotes how long it takes for the measured level to halve. The term bioavailability denotes the share of a dose that reaches the circulation, judged against a reference dose that is usually intravenous. For the compound `Br` [bromide], in [1], the “freezing response episodes in novel arena test” value was “trend towards decreased freezing response episodes”. Also, in [2], the “anticonvulsant range (Br concentration)” value is 1.0 to 2.0 mg/mL. Further, the signs of ataxia result in series [3] is reported as “no signs of ataxia”. In addition, in series [3] (vs normal drinking water), the parallel rod touches result is “significantly more touches”. Further, the “mean weight gain between day 7 and 14” value in [4] (300 mg/kg LW oral bromide) amounted to 1.80 ± 0.30 kg. Moreover, in [4] (setting [10]), the “mean live weight on day 51” value was 22.17 ± 0.86 kg and the “mean weight gain after 51 days” value amounted to 8.52 ± 0.57 kg. Also, the “Day 1-7 mean weight change” value in [4] (300 mg/kg LW oral bromide, first seven days) is -0.564 ± 1.29 kg. In addition, the “weight gain compared to untreated counterparts” value in [4] (300 mg/kg LW oral, after 14 days) was “enhanced weight gain”. Moreover, the live weight gain in series [4] (over 51 days) turned out to be 0.16 kg per head per day. Also, in series [4] (over the 51 days of the trial), the “weight gain per head per day” value was 0.57. Further, the “increase in production gain” value in series [4] (vs control, over 51 days) is given as 11%. Moreover, in [5], the estimated bioavailability is 32-38% and the t½ entry was “approximately 3 d”. For the same compound, the t½ in series [6] (dog (Trepanier and Babish, 1995)) is 12 to 24 days. In series [6] (dog (Trepanier and Babish, 1995b)), the bioavailability is on record as 40%. Besides, the adverse reactions result in series [7] (IV and PO groups) is listed as “No adverse reactions were noted”. In addition, in series [7] (IV), the “duration of tranquilising effect post-injection” value was 1 to 2 h and the “tranquilising effect (subjective observation)” value is “mild tranquilising effect”. For the same compound, the neurological effects result in [7] (PO group) is “no discernable neurological effects”. Moreover, the rumen motility result in [7] (PO group, auscultated 1 h to 10 h) is “no observed alteration in rumen motility”. Moreover, the weight gain entry in series [8] is “increased weight gain”. Also, in [9] (IV), the t½ is 16.2 days. Also, in series [9] (PO), the “absorption following PO administration” value is recorded as “absorbed rapidly” and the “half-life (t½)” value is reported as “approximately 14 days”. Further, the “serum Br concentration range” value in [9] (PO 120 mg/kg, for 14 d) lay within 200 to 400 mg/L.

Take `[Br-].[K+]` [potassium bromide]: the “freezing response episodes in novel arena test” value in series [1] is “trend was towards decreased freezing episodes”. In series [4] (300 mg/kg LW oral at time of mulesing and tail docking, over 51 days), the “weight gain compared to untreated counterparts” value is given as “trend towards increased weight gain”. Moreover, the weight gain result in series [8] is “significant weight gain”.
